According to patent US6391344B2, “Method of promoting synthesis of nerve growth factor” (Nagase & Company, Ltd., priority 1999, dated 2002):

Tested on: Human glioblastoma cells (T98G, Cell line)
Experiment: Promotion of NGF synthesis: NGF content in culture supernatant by enzyme immunoassay
Assay type: cell-based
Settings: for NGF Content in sample solution / content of NGF in the sample solution as compared with the systems not containing any effective ingredient: T98G cells; for NGF Content in sample solution: 4 days cultivation, mean ± standard deviation; for Relative NGF content: ratio of example solution to comparative example solution; for content of NGF in the sample solution as compared with the systems not containing any effective ingredient: result in words, both tested concentrations
Description: Human glioblastoma cells (T98G, Cell line) were seeded in a MEM medium containing fetal bovine serum (10%; Gibco), sodium pyruvate (×1; Gibco) and nonessential amino acids (×1; Gibco) in wells of a flat-bottom 96-well plate (Corning), in a cell density of 2×10^4/well, and cultivated in a CO2 incubator (37° C., 5% CO2) for 3 days. The medium was then replaced by an Opti-MEM medium (containing 5 mg/ml of bovine serum albumin). The cultivation was continued for further 6 days with replacing the medium at intervals of 3 days.
[…] After the cultivation, the supernatant was taken as a sample solution.
On the other hand, 1 ug/ml of an anti-NGF antibody (Promega) solution (50 ul) was added to each well of a 96-well microplate (Nunc), and the plate was allowed to stand overnight at 4° C. After washing the plate with PBS(−) (Nissui Pharmaceuticals), 1% of a bovine serum albumin (Sigma) solution (100 ul) was added to each well of the plate and the plate was allowed to stand at room temperature for 4 hrs. Subsequently, the plate was washed with PBS (−) and the above sample solution (50 ul) was added to each well of the plate. After the reaction at room temperature for one hour, the plate was washed with PBS (−).
Subsequently, 0.4 unit/ml of an beta-galactosidase-labeled anti-NGF antibody (Boehringer Mannheim) solution (50 ul) was added to each well of the plate, and allowed to react at room temperature for one hour. After washing the plate with PBS (−), 0.5 mg/ml of a 4-methylumbelliferyl-beta-D-galactoside solution (200 ul) was added to each well of the plate, and allowed to react overnight at room temperature. The fluorescence intensity of 4-methylumbelliferone produced was measured on a fluorescence plate reader, and the content of NGF contained in the sample solution was determined using a standard curve obtained from a standard solution (human beta-NGF; PEPRO TECH EC).

[1] = 20 uM effective ingredient in medium
[2] = 100 uM effective ingredient in medium

CC(C)c1cc2c(c(O)c1O)[C@@]1(C(=O)O)CCCC(C)(C)C1CC2 (stereo partly shown) [Carnosic acid of formula (I), carnosic acid]
NGF Content in sample solution [1]: 46.0 ± 7.4 pg/mL | Relative NGF content [1]: 7.2 | NGF Content in sample solution [2]: 158.5 ± 16.6 pg/mL | Relative NGF content [2]: 24.8

CC(C)c1cc2c(c(O)c1O)[C@@]13CCCC(C)(C)C1C[C@@H]2OC3=O (stereo partly shown) [Carnosol of formula (II), carnosol]
NGF Content in sample solution [1]: 35.4 ± 6.9 pg/mL | Relative NGF content [1]: 5.5 | NGF Content in sample solution [2]: 39.9 ± 2.3 pg/mL | Relative NGF content [2]: 6.2

CC(C)c1cc2c(c(O)c1O)[C@@]1(C(=O)O)CCCC(C)(C)[C@@H]1CC2 [carnosic acid of the formula (I)]
content of NGF in the sample solution as compared with the systems not containing any effective ingredient: increases

CC(C)c1cc2c(c(O)c1O)[C@@]13CCCC(C)(C)[C@@H]1C[C@@H]2OC3=O [carnosol of the formula (II)]
content of NGF in the sample solution as compared with the systems not containing any effective ingredient: increases
